Experimental data published in US20260345595A1, “NOVEL FLUORENE DERIVATIVE COMPOUND AND USE THEREOF” (JD BIOSCIENCE INC., priority 2022, published 2026).

Assays:
[1] = tested on: DSS-induced colitis in C57BL6J JmcSlc mice; assay: DSS colitis, inflammatory bowel disease animal model; type: in vivo, mouse; details: for colonic epithelial cell recovery (H&E): FIG. 6A
Method: Colitis was induced in 8-week-old male C57BL6J JmcSlc mice by feeding 3.5% dextran sodium sulfate (DSS) ad libitum for 9 days, and then replacing the same with normal drinking water. The vehicle and Compound 1 (0.5 mg/kg or 1 mg/kg) were orally administered to the experimental animal model prepared as described above daily from 2 days before DSS drinking until the end of drinking. In order to determine the degree of colonic inflammation, the degree of longitudinal contraction of the isolated colon was measured, and the histological scores were confirmed through H&E staining, which is shown in FIG. 6. Furthermore, total RNA was isolated from the isolated colon, cDNA was synthesized, and the expression levels of representative cytokines (IFNγ, IL-1β, IL-4, IL-6, IL-10, IL-12β, IL-17α, and TNFα) were measured and compared using qPCR, and the results are shown in FIG. 7.

[2] = tested on: bone marrow-derived dendritic cells (BMDCs); assay: IL-1β release (inflammasome formation) in LPS/ATP-stimulated bone marrow-derived dendritic cells, ELISA; type: cell-based, C57BL6 mice; details: versus vehicle control
Method: Furthermore, to verify the anti-inflammatory effect at a cellular level, bone marrow cells of C57BL6 mice were treated with 20 ng/ml of GM-CSF and IL-4, and 6 days later, bone marrow-derived dendritic cells (BMDCs) were collected. The BMDCs were prepared at 1×10^6 cells/mL and stabilized for one day, and then subsequent experiments were conducted. The above dendritic cells were treated with 500 ng/ml of LPS for 3 hours to prime pro-IL1B, and then treated with Compound 1 (0 μM, 0.01 µM, 0.1 μM, 1 μM, and 10 μM) for 15 minutes. Next, 5 mM of ATP was treated, which induces inflammasome formation by converting pro-IL1B to IL-1B through pro-IL1B cleavage, and 30 minutes later, the concentration of IL-1B in the supernatant was measured by ELISA, and the results are shown in FIG. 10 and Table 3.

[3] = tested on: cerulein-induced acute pancreatitis in mice; assay: Cerulein-induced acute pancreatitis animal model; type: in vivo, mouse; details: 5 μg/kg or 10 μg/kg, tail vein; versus Cerulein; FIG. 8
Method: Acute pancreatitis was induced by intraperitoneal administration of cerulein (50 μg/kg) dissolved in saline to 8-week-old male mice. Compound 1 was administered at a concentration of 5 μg/kg or 10 μg/kg into the tail vein 24 hours and 1 hour before cerulein administration, and cerulein was intraperitoneally administered six times at 1-hour intervals. 18 hours after the first cerulein administration, the mice were anesthetized, the serum was separated, and the amylase and lipase activities in the serum were measured, which are shown in FIG. 8.

[4] = tested on: LPS-induced sepsis in C57BL6J mice; assay: LPS-induced sepsis animal model, viability; type: in vivo, mouse; details: for Viability: 15 mg/kg i.p. before 50 mg/kg LPS
Method: 50 mg/kg of lipopolysaccharide (LPS) administration dose corresponds to the ‘half lethal dose’ that causes death of one half of the population within 24 hours. […] The animal experiment was conducted with six 8-week-old male C57BL6J mice per group. Each mouse was intraperitoneally administered 15 mg/kg of Compound 1 or pretreated with 100 μL of 10% DMSO (vehicle control). 30 minutes later, 50 mg/kg lipopolysaccharide was intraperitoneally injected into each mouse, and the viability was examined for 80 hours, and the results are shown in FIG. 9 and Table 2.

[5] = colon tissue, qPCR, versus vehicle, FIG. 7

`CC(C(=O)NNc1ccc(F)cc1)n1cc(-c2cc(F)cc3c2-c2ccccc2C3(O)C(F)(F)F)cn1` (centres unmarked) [Compound 1, 2-(4-(2-fluoro-9-hydroxy-9-(trifluoromethyl)-9H-fluoren-4-yl)-1H-pyrazol-1-yl)-N′-(4-fluorophenyl)propanehydrazide] was tested, and the “longitudinal contraction of colon” value ([1]; 0.5 mg/kg and 1 mg/kg, oral daily, versus vehicle, FIGS. 6C and 6D) was “the contraction was alleviated both in the group administered 0.5 mg/kg of Compound 1 and in the group administered 1 mg/kg of Compound 1, as compared to the vehicle administration group, and the effect increased as the administration amount increased”, the “colonic epithelial cell recovery (H&E)” value ([1]; 0.5 mg/kg, oral daily) was “the recovery was slight” and the “colonic epithelial cell recovery (H&E)” value ([1]; 1 mg/kg, oral daily) was “remarkable epithelial cell recovery”. The “tissue (histological) score” value ([1]; 1 mg/kg, oral daily, FIG. 6B) was “the lowest score”, the “IFNγ mRNA expression” value [1, 5] was “significantly reduced” and the “IL-4 mRNA expression” value [1, 5] was “increased”. The “IL-6 mRNA expression” value [1, 5] was “significantly reduced”, the “IL-12b mRNA expression” value [1, 5] was “significantly reduced” and the “IL-17a mRNA expression” value [1, 5] was “significantly reduced”. For the same compound, the “TNFα mRNA expression” value [1, 5] was “significantly reduced”, the inhibition at 0.1 µM ([2]; Mus musculus, BMDC, 0.1 µM, read-out: inhibition of IL-1β expression) was about 83.8% and the inhibition at 10 µM ([2]; Mus musculus, BMDC, 10 µM, read-out: inhibition of IL-1β expression) was about 53.8%. The “inhibition of IL-1β expression (in words)” value ([2]; FIG. 10) was “significantly inhibited”, the serum amylase activity [3] was “decreased by administration of Compound 1 in a dose-dependent manner” and the serum lipase activity [3] was “decreased by administration of Compound 1 in a dose-dependent manner”. The Viability ([4]; 0 h) was 100%, the Viability ([4]; 20 h) was 100% and the Viability ([4]; 24 h) was 83.3%. It also gave a Viability ([4]; 28 h) of 83.3%, a Viability ([4]; 32 h) of 83.3% and a Viability ([4]; 36 h) of 66.7%. It also gave a Viability ([4]; 40 h) of 66.7%, a Viability ([4]; 44 h) of 66.7% and a Viability ([4]; 48 h) of 66.7%. It also gave a Viability ([4]; 50 h) of 66.7%, a Viability ([4]; 60 h) of 50% and a Viability ([4]; 70 h) of 50%. For the same compound, the Viability ([4]; 80 h) was 50% and the “viability in sepsis-induced animal model (in words)” value ([4]; 15 mg/kg i.p., p<0.01 versus LPS+vehicle, FIG. 9) was “had the effect of improving the viability”.
